Measured values from US20230295114A1, “AKT3 MODULATORS” (Georgiamune LLC, priority 2020, published 2023).
pEC50, pIC50: −log10 of the molar value.

Key:
Akt3 [1] = biological target: T1, Akt3 (Homo sapiens, UniProt Q9Y243); experiment: Akt3 inhibition activity of selected compounds; assay type: cell-based
T1 construct: endogenous in cells

Akt3 [2] = biological target: T1, Akt3; experiment: Akt3 activation activity of selected compounds; assay type: cell-based

T1 sequence (Q9Y243 whole entry): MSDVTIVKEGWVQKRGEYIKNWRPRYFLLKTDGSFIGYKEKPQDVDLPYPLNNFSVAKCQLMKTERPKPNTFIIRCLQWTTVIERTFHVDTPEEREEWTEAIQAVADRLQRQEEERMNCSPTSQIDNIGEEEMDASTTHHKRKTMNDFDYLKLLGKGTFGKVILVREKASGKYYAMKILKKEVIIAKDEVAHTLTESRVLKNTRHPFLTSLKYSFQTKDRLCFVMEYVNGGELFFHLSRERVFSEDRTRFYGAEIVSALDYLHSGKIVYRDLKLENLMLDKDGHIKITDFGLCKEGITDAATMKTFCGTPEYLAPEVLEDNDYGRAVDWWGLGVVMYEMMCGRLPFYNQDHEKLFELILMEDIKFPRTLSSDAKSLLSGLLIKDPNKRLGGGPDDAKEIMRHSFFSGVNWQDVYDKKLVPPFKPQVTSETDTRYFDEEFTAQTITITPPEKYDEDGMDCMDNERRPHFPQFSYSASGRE

Compound: Nc1cc(Nc2cccc(NC(=O)c3ccc(Nc4ccncc4)cc3)c2)ccn1 [Compound 93, N-(3-(2-aminopyridin-4-ylamino)phenyl)-4-(pyridin-4-ylamino)benzamide]
- pIC50 (Akt3 [1]): > 5.70

Compound: Cc1cc(Nc2ccc3[nH]c(-c4ccc(Nc5cc(C)nc6ccc(N7CCOCC7)cc56)nc4)nc3c2)ccn1 [Compound 73, 2-methyl-N-(5-(5-(2-methylpyridin-4-ylamino)-1H-benzo[d]imidazol-2-yl)pyridin-2-yl)-6-morpholinoquinolin-4-amine]
- pEC50 (Akt3 [2]): > 7.30

Compound: O=C(Nc1cccc(Nc2ccncc2)c1)c1ccc(Nc2ccnc3ccccc23)cc1 [Compound 5, N-(3-(pyridin-4-ylamino)phenyl)-4-(quinolin-4-ylamino)benzamide]
- pIC50 (Akt3 [1]): > 5.70

Compound: O=C(Nc1cccc(Nc2ccncc2)c1)c1ccc(Nc2ccncc2)cc1 [Compound 10, 4-(pyridin-4-ylamino)-N-(3-(pyridin-4-ylamino)phenyl)benzamide]
- pIC50 (Akt3 [1]): > 6.00

Compound: Cc1cc(Nc2cccc(NC(=O)c3ccc(Nc4ccncc4)cc3)c2)cc(N)n1 [Compound 94, N-(3-(2-amino-6-methylpyridin-4-ylamino)phenyl)-4-(pyridin-4-ylamino)benzamide]
- pIC50 (Akt3 [1]): > 5.70

Compound: Cc1cnc2ccccc2c1Nc1ccc(C(=O)Nc2cccc(Nc3ccncc3)c2)cc1 [Compound 14, 4-((3-methylquinolin-4-yl)amino)-N-(3-(pyridin-4-ylamino)phenyl)benzamide]
- pIC50 (Akt3 [1]): > 6.30

Compound: Cc1cc(Nc2ccc3[nH]c(-c4ccc(Nc5ccnc6ccc(N7CC(C)OC(C)C7)cc56)cc4)nc3c2)ccn1 (stereo not drawn) [Compound 75, 6-(2,6-dimethylmorpholino)-N-(4-(5-((2-methylpyridin-4-yl)amino)-1H-benzo[d]imidazol-2-yl)phenyl)quinolin-4-amine]
- pEC50 (Akt3 [2]): > 7.70

Compound: Cc1cc(Nc2ccc(C(=O)Nc3cccc(Oc4ccncc4)c3)cc2)c2ccccc2n1 [Compound 15, 4-((2-methylquinolin-4-yl)amino)-N-(3-(pyridin-4-yloxy)phenyl)benzamide]
- pIC50 (Akt3 [1]): > 5.70

Compound: Cc1cc(Nc2ccc3[nH]c(-c4ccc(Nc5ccnc6ccc(N(C)C)cc56)cc4)nc3c2)ccn1 [Compound 37, N^6,N^6-dimethyl-N^4-(4-(5-((2-methylpyridin-4-yl)amino)-1H-benzo [d]imidazol-2-yl)phenyl)quinoline-4,6-diamine]
- pEC50 (Akt3 [2]): > 5.30

Compound: O=C(Nc1cccc(Nc2ccncc2)c1)c1ccc(Nc2ccnc3ccc(F)cc23)cc1 [Compound 2, 4-((6-fluoroquinolin-4-yl)amino)-N-(3-(pyridin-4-ylamino)phenyl)benzamide]
- pIC50 (Akt3 [1]): > 6.00

Compound: Cc1ccc2c(Nc3ccc(C(=O)Nc4cccc(Oc5ccncc5)c4)cc3)ccnc2c1 [Compound 17, 4-((7-methylquinolin-4-yl)amino)-N-(3-(pyridin-4-yloxy)phenyl)benzamide]
- pIC50 (Akt3 [1]): > 5.30

Compound: Cc1cc(Nc2ccc(C(=O)Nc3cccc(Nc4ccnc(C)c4)c3)cc2)ccn1 [Compound 23, 4-((2-methylpyridin-4-yl)amino)-N-(3-((2-methylpyridin-4-yl)amino)phenyl)benzamide]
- pIC50 (Akt3 [1]): > 5.70

Compound: Cc1cc(Nc2ccc3[nH]c(-c4ccc(Nc5ccnc6ccc(N7CCOCC7)cc56)nc4)nc3c2)ccn1 [Compound 71, N-(5-(5-((2-methylpyridin-4-yl)amino)-1H-benzo[d]imidazol-2-yl)pyridin-2-yl)-6-morpholinoquinolin-4-amine]
- pEC50 (Akt3 [2]): > 7.30

Compound: Cc1cc(Nc2ccc3[nH]c(-c4ccc(Nc5cc(C)nc6ccc(N7CC(C)OC(C)C7)cc56)cc4)nc3c2)ccn1 (stereo not drawn) [Compound 76, 6-(2,6-dimethylmorpholino)-2-methyl-N-(4-(5-(2-methylpyridin-4-ylamino)-1H-benzo[d]imidazol-2-yl)phenyl)quinolin-4-amine]
- pEC50 (Akt3 [2]): > 7.30

Compound: Cc1cc(Nc2cccc(NC(=O)c3ccc(Nc4ccncc4)cc3)c2)ccn1 [Compound 22, N-(3-((2-methylpyridin-4-yl)amino)phenyl)-4-(pyridin-4-ylamino)benzamide]
- pIC50 (Akt3 [1]): > 5.70

Compound: Cc1cc(Nc2ccc3[nH]c(-c4ccc(Nc5cc(C)nc6ccc(N7CCOCC7)cc56)cn4)nc3n2)ccn1 [Compound 70, 2-methyl-N-(6-(5-(2-methylpyridin-4-ylamino)-1H-imidazo [4,5-b]pyridin-2-yl)pyridin-3-yl)-6-morpholinoquinolin-4-amine]
- pEC50 (Akt3 [2]): > 5.70

Compound: Cc1cnc2ccccc2c1Nc1ccc(C(=O)Nc2cccc(Oc3ccncc3)c2)cc1 [Compound 13, 4-((3-methylquinolin-4-yl)amino)-N-(3-(pyridin-4-yloxy)phenyl)benzamide]
- pIC50 (Akt3 [1]): > 5.30

Compound: Cc1cc(Nc2ccc3[nH]c(-c4ccc(Nc5cc(C)nc6ccc(N7CC(C)OC(C)C7)cc56)cn4)nc3c2)ccn1 (stereo not drawn) [Compound 77, 6-(2,6-dimethylmorpholino)-2-methyl-N-(6-(5-(2-methylpyridin-4-ylamino)-1H-benzo[d]imidazol-2-yl)pyridin-3-yl)quinolin-4-amine]
- pEC50 (Akt3 [2]): > 7.30

Compound: Cc1cc(Nc2ccc3[nH]c(-c4ccc(Nc5ccnc6ccc(N7CCOCC7)cc56)cn4)nc3c2)ccn1 [Compound 69, N-(6-(5-((2-methylpyridin-4-yl)amino)-1H-benzo[d]imidazol-2-yl)pyridin-3-yl)-6-morpholinoquinolin-4-amine]
- pEC50 (Akt3 [2]): > 7.70

Compound: O=C(Nc1cc(Nc2ccncc2)ccn1)c1ccc(Nc2ccncc2)cc1 [Compound 24, 4-(pyridin-4-ylamino)-N-(4-(pyridin-4-ylamino)pyridin-2-yl)benzamide]
- pIC50 (Akt3 [1]): > 5.30

Compound: Cc1c(Nc2cccc(NC(=O)c3ccc(Nc4ccncc4)cc3)c2)ccnc1N [Compound 92, N-(3-(2-amino-3-methylpyridin-4-ylamino)phenyl)-4-(pyridin-4-ylamino)benzamide]
- pIC50 (Akt3 [1]): > 5.30

Compound: O=C(Nc1cccc(Nc2ccnc(F)c2)c1)c1ccc(Nc2ccncc2)cc1 [Compound 31, N-(3-(2-fluoropyridin-4-ylamino)phenyl)-4-(pyridin-4-ylamino)benzamide]
- pIC50 (Akt3 [1]): > 6.00

Compound: Cc1cc(Nc2ccc3[nH]c(-c4ccc(Nc5cc(C)nc6ccc(N7CCOCC7)cc56)cn4)nc3c2)ccn1 [Compound 74, 2-methyl-N-(6-(5-(2-methylpyridin-4-ylamino)-1H-benzo[d]imidazol-2-yl)pyridin-3-yl)-6-morpholinoquinolin-4-amine]
- pEC50 (Akt3 [2]): > 7.30

Compound: N#Cc1cc(Nc2cccc(NC(=O)c3ccc(Nc4ccncc4)cc3)c2)ccn1 [Compound 30, N-(3-(2-cyanopyridin-4-ylamino)phenyl)-4-(pyridin-4-ylamino)benzamide]
- pIC50 (Akt3 [1]): > 5.30
